# Experiments:
# [1] = Safety assessment in clinical trials; assay type: in vivo, human
# Protocol: AEs that were observed involved mild symptoms unrelated to EC-18 administration. […] In the clinical studies with pancreatic cancer patients, there were no SAEs associated with EC-18 administered twice daily (BID) for a total of 1000 mg/day.
# [2] = In vitro metabolite screening, rat liver microsomes; assay type: in vitro ADME; details: N=2
# Protocol: (§1) [^14C]EC-18 or the positive control (7-ethoxycoumarin; 7-EC) reacted with microsomes prepared from hepatocytes of rats, dogs, monkeys, and humans, with or without cofactors, for 60 and 120 min. Then, the residual EC-18 concentration over time was measured by LC-RID ([^14C]EC-18) or LC-MS/MS (7-EC) (FIG. 63 and FIG. 64).
# (§2) The LC-RID chromatographic profiles of radioactive metabolites produced in the 2-hr incubation reaction mixtures of the same test systems A, B, and C used to assess the metabolic and non-metabolic elimination rates of EC-18 were compared to the LC-UV chromatographic profiles of the synthetic reference material. […] The relative radioactivity of EC-18 accounted for 42-67% of total radioactivity. The peaks designated as M2, M3, and M5 were also determined in all species, and their relative radioactivity accounted for 12-34% of total radioactivity. The peaks of M4 and M6 were determined in monkeys and humans. M1 was abundantly detected in all species, but it was assumed to be a peak of early elution. The LC-UV chromatograms of reaction mixtures in each test system (FIGS. 65A-65C) and the relative radioactivity of the screened metabolites are shown in Table 25.
# [3] = In vitro metabolite screening, dog liver microsomes; assay type: in vitro ADME; details: N=2
# Protocol: as §1, §2
# [4] = tested on: S. typhi-murium (TA98, TA100, TA1535, TA1537), E. coli (WP2uvrA(pKM101)); assay type: cell-based; details: in vitro; 48 hr; 312.5-5000 μg/plate
# Description: Various toxicology studies have been performed. All studies were GLP-compliant unless otherwise noted.
# [5] = A (NADPH added), [14C]EC-18 2 hrs
# [6] = B (NADPH, PAPS, UDPGA added), 2 hrs
compound,measurement,setting,value
"CCCCC/C=C\C/C=C\CCCCCCCC(=O)OC(COC(C)=O)COC(=O)CCCCCCCCCCCCCCC (stereo not shown) [EC-18, 1-palmitoyl-2-linoleoyl-3-acetylglycerol]",adverse events,[1]; five clinical trials,no adverse events (AEs) that could be considered serious or severe
same,SAEs associated with EC-18,"[1]; pancreatic cancer patients, BID, total 1000 mg/day",no SAEs
same,accumulation,[1]; single- and multiple-dose 500 to 4000 mg,no accumulation with repeated-dosing was observed
same,Mean Peak Area in LC-RID,[2]; [5],61.8%
same,Mean Peak Area in LC-RID,[2]; [6],51.9%
same,Mean Peak Area in LC-RID,"[2]; C (no cofactor added), 2 hrs",58.8%
same,Mean Peak Area in LC-RID,[3]; [5],52.6%
same,Mean Peak Area in LC-RID,[3]; [6],54.3%
same,Mean Peak Area in LC-RID,"[3]; C (no cofactor added), 2 hrs",56.6%
same,induction of reverse mutation,[4],No potential of EC-18
